# Legend:
# hyperlipidemia mice = assay: Lipid lowering effects in Tyloxapol-induced hyperlipidemia mice; assay type: in vivo, Kunming strain; conditions: plasma; 10 mg/kg oral once a day for four days; Tyloxapol 400 mg/kg i.p.; blood 24 hours after Tyloxapol
# Experimental: Test method: Male and […] mice, Kunming strain, 35 each, weight 18-22 grams, were used. Food and water were available ad libitum. The animals were randomized into 7 groups (n=10). Groups of animals were administered orally, via a stomach tube, vehicle (distilled water, two groups), R-bambuterol hydrochloride (10 mg/kg and 5 mg/kg), racemic bambuterol hydrochloride (10 mg/kg and 5 mg/kg) and simvastatin (10 mg/kg) once a day for four days. With the exception of one vehicle- treated group (as control), Tyloxapol (400 mg/kg, Sigma Chemical Co.) was injected into the peritoneal cavity of the mice of all groups immediately after the last treatment on the fourth day in order to induce hyperlipidemia. All the animals were fasted overnight prior to the injection of Tyloxapol. Blood samples were collected by cardiac puncture 24 hours after the injection of Tyloxapol. The blood samples were processed to plasma, and concentration of triglycerides (TG), cholesterol (CHO), high density lipoprotein (HDL), low density lipoprotein (LDL) and very low density lipoprotein (VLDL) were measured with an auto-blood analyzer (Olympic, Japan).
# Rats (Sprague Dawley) = assay: Cardiovascular effects in anesthetized rats (HR, MBP, Max dp/dt); assay type: in vivo; conditions: 30 mg/kg intravenously
# From the text: Test method: Rats (Sprague Dawley, 250-300g) were randomized into two groups (n=6, equal sexes). After anesthesia, plastic tubing was introduced into a carotid artery of each animal and connected to pressure transducers to record mean artery pressure (MBP) and heart rate (HR). Another tube was introduced into the left ventricular chamber via the another carotid artery and connected to a pressure transducer. Left ventricular systolic pressure (LVSP) and the first order of differential of LVSP (dp/dt) as an index for inotropic effects were recorded. R-Bambuterol and racemic bambuterol hydrochloride were dissolved in saline and administrated intravenously at 30 mg/kg to each animal. The HR, MBP and Max dp/dt were measured before treatment (control) and after the treatments when the maximum response occurred, and 20 min after treatment as indication of recovery.
# [1] = bronchospasmolytic activity upon oral administration; cited from earlier work
# [2] = 20 min after treatment (recovery)
# [3] = change from pre-treatment control at maximum response
smiles,measurement,setting,value
CN(C)C(=O)Oc1cc(OC(=O)N(C)C)cc(C(O)CNC(C)(C)C)c1 (racemic) [bambuterol],CHO lipid levels,hyperlipidemia mice,125.2 ± 19.8 mg/dL
same,HDL lipid levels,hyperlipidemia mice,50 ± 17 mg/dL
same,LDL lipid levels,hyperlipidemia mice,30 ± 6 mg/dL
same,TG lipid levels,hyperlipidemia mice,148 ± 45 mg/dL
same,VLDL lipid levels,hyperlipidemia mice,44.2 ± 14.4 mg/dL
same,"HR, 20min after Δ",Rats (Sprague Dawley); [2],40±9 Beat/min
same,"MBP, 20min after Δ",Rats (Sprague Dawley); [2],1.1±0.4 Kpa
same,"MBP, 20min after Δ, % of control",Rats (Sprague Dawley); [2],8.3%
same,"Maxdp/dt, 20min after Δ",Rats (Sprague Dawley); [2],13±3.8 Kpa/sec
same,"Maxdp/dt, 20min after Δ, % of control",Rats (Sprague Dawley); [2],4.8%
same,"HR, 20min after Δ, % of Control","Rats (Sprague Dawley); 20 min after treatment (recovery), listed as Rac-Bambuterol",9.5%
same,"HR, 20min after Δ, % of Control","Rats (Sprague Dawley); 20 min after treatment (recovery), listed as racemic bambuterol hydrochloride",9.5%
same,"HR, Treatment Δ, % of Control",Rats (Sprague Dawley); at maximum response,20.6%
same,"MBP, Treatment Δ, % of control",Rats (Sprague Dawley); at maximum response,31.6%
same,"Maxdp/dt, Treatment Δ, % of control","Rats (Sprague Dawley); at maximum response, listed as Rac-Bambuterol",24.4%
same,"Maxdp/dt, Treatment Δ, % of control","Rats (Sprague Dawley); at maximum response, listed as racemic bambuterol",24.4%
same,"HR, Treatment Δ",Rats (Sprague Dawley); [3],85.8±5 Beat/min
same,"MBP, Treatment Δ",Rats (Sprague Dawley); [3],4.2±0.5 Kpa
same,"Maxdp/dt, Treatment Δ",Rats (Sprague Dawley); [3],65.4±9 Kpa/sec
same,duration of activity,[1],more than 12 hours
